From patent US20240317721A1, “PYRAZOLYL DERIVATIVES AS INHIBITORS OF THE KRAS MUTANT PROTEIN” (NOVARTIS AG, priority 2021, published 2024)

Target: KRasG12C (M1-K169, biotinylated on the N-terminus) (Homo sapiens (Human), UniProt P01116, G12C)
Test: Covalent competition assay: scintillation proximity assay (SPA) quantifying covalent modification of KRASG12C
Format: binding
Details: competition with radiolabeled covalent probe (Compound B/Compound A), 2 hours incubation, 10 nM KRasG12C
Procedure, shortened: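 Test compounds compete with a radiolabeled covalent probe for modification of N-terminally biotinylated KRasG12C(M1-K169):GDP, final 10 nM protein, 25 nM radio-ligand, 475 nM unlabelled ligand, 2 h with agitation in 20 mM Tris-HCl pH 7.5, 150 mM NaCl, 0.1 mM MgCl2, 0.01% Tween-20.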

IC50 | Compound
> 5000 nM | C=CC(=O)N1CC2(CC(n3nc(N4CC[C@@H](CN5CCN6C(=O)COC[C@@H]6C5)CC4(C)C)c(-c4c(Cl)c(Cl)cc5[nH]ncc45)c3C)C2)C1 (single isomer, unassigned) [Example 275a]
9 nM | C=CC(=O)N1CC2(CC(n3nc(N4CC[C@@H](CN5CC6(CCCO6)C5)CC4(C)C)c(-c4c(Cl)c(Cl)cc5[nH]ncc45)c3C)C2)C1 (single isomer, unassigned) [Example 234b]
> 5000 nM | C=CC(=O)N1CC2(CC(n3nc(N4CCC(N(C)C(=O)COC)CC4(C)C)c(-c4c(Cl)c(C)cc5[nH]ncc45)c3C)C2)C1 (single isomer, unassigned) [Example 96a, N-(1-(1-(2-acryloyl-2-azaspiro[3.3]heptan-6-yl)-4-(5-chloro-6-methyl-1H-indazol-4-yl)-5-methyl-1H-pyrazol-3-yl)-2,2-dimethylpiperidin-4-yl)-2-methoxy-N-methylacetamide]
6 nM | C=CC(=O)N1CC2(CC(n3nc(N4CCN(C5COC5)C[C@]4(C)CC)c(-c4c(Cl)c(C)cc5[nH]nc(N)c45)c3C)C2)C1 (single isomer, unassigned) [Example 158a]
17 nM | C=CC(=O)N1CC2(CC(n3nc(N4CCN(C(C)(C)C(=O)OC)CC45CCC5)c(-c4c(Cl)c(C)cc5[nH]ncc45)c3C)C2)C1 (single isomer, unassigned) [Example 180b, methyl 2-(5-(1-(2-acryloyl-2-azaspiro[3.3]heptan-6-yl)-4-(5-chloro-6-methyl-1H-indazol-4-yl)-5-methyl-1H-pyrazol-3-yl)-5,8-diazaspiro[3.5]nonan-8-yl)-2-methylpropanoate]
503 nM | C=CC(=O)N1CC2(CC(n3nc(N4CCC(O)(CN5CCOCC5)CC4(C)C)c(-c4c(Cl)c(Cl)cc5[nH]ncc45)c3C)C2)C1 (single isomer, unassigned) [Example 238b, 1-(6-(4-(5,6-dichloro-1H-indazol-4-yl)-3-(4-hydroxy-2,2-dimethyl-4-(morpholinomethyl)piperidin-1-yl)-5-methyl-1H-pyrazol-1-yl)-2-azaspiro[3.3]heptan-2-yl)prop-2-en-1-one]
84 nM | C=CC(=O)N1CC2(CC(n3nc(N4CC[C@@H](CN5CCN(C6COC6)CC5)CC4(C)C)c(-c4c(Cl)ccc5[nH]ncc45)c3C)C2)C1 (single isomer, unassigned) [Example 255b]
> 5000 nM | C=CC(=O)N1CC2(CC(n3nc(N4CCC(=O)CC45CCC5)c(-c4c(Cl)c(C)cc5[nH]ncc45)c3C)C2)C1 [Example 47, 5-(1-(2-acryloyl-2-azaspiro[3.3]heptan-6-yl)-4-(5-chloro-6-methyl-1H-indazol-4-yl)-5-methyl-1H-pyrazol-3-yl)-5-azaspiro[3.5]nonan-8-one]
15 nM | C=CC(=O)N1CC2(CC(n3nc(N4CC[C@@H](CN5CCCC6CN(C)C(=O)C65)CC4(C)C)c(-c4c(Cl)c(Cl)cc5[nH]ncc45)c3C)C2)C1 (single isomer, unassigned) [Example 261b, (4aR*,7aR*)-1-(((R)-1-(1-(2-acryloyl-2-azaspiro[3.3]heptan-6-yl)-4-(5,6-dichloro-1H-indazol-4-yl)-5-methyl-1H-pyrazol-3-yl)-2,2-dimethylpiperidin-4-yl)methyl)-6-methyloctahydro-7H-pyrrolo[3,4-b]pyridin-7-one]
7 nM | C=CC(=O)N1CC2(CC(n3nc(N4CC[C@@H](CN5CC6(CCN(C7COC7)C6)C5)CC4(C)C)c(-c4c(Cl)c(Cl)cc5[nH]ncc45)c3C)C2)C1 (single isomer, unassigned) [Example 267b]

The remaining lines, values behind:

Compound | IC50
C=CC(=O)N1CC2(CC(n3nc(N4CCN(C[C@@H]5COCCO5)C[C@@]4(CC)C(F)F)c(-c4c(Cl)c(C)cc5[nH]ncc45)c3C)C2)C1 (single isomer, unassigned) [Example 107b] | 10 nM
C=CC(=O)N1CC2(CC(n3nc(N4CC[C@@H](CN5CC(O)C(OC)C5)CC4(C)C)c(-c4c(Cl)c(Cl)cc5[nH]ncc45)c3C)C2)C1 (single isomer, unassigned) [Example 273a, 1-(6-(4-(5,6-dichloro-1H-indazol-4-yl)-3-((R)-4-(((3S*,4S*)-3-hydroxy-4-methoxypyrrolidin-1-yl)methyl)-2,2-dimethylpiperidin-1-yl)-5-methyl-1H-pyrazol-1-yl)-2-azaspiro[3.3]heptan-2-yl)prop-2-en-1-one] | 1100 nM
C=CC(=O)N1CC2(CC(n3nc(N4CCN(C5COCCOC5)C[C@]4(C)CC)c(-c4c(Cl)c(C)cc5[nH]ncc45)c3C)C2)C1 (single isomer, unassigned) [Example 159b] | 9 nM
C=CC(=O)N1CC2(CC(n3nc(N4CC[C@@H](CN5CC(O)C(OC)C5)CC4(C)C)c(-c4c(Cl)c(Cl)cc5[nH]ncc45)c3C)C2)C1 (single isomer, unassigned) [Example 273b, 1-(6-(4-(5,6-dichloro-1H-indazol-4-yl)-3-((R)-4-(((3S*,4S*)-3-hydroxy-4-methoxypyrrolidin-1-yl)methyl)-2,2-dimethylpiperidin-1-yl)-5-methyl-1H-pyrazol-1-yl)-2-azaspiro[3.3]heptan-2-yl)prop-2-en-1-one] | 10 nM
C=CC(=O)N1CC2(CC(n3nc(N4CCC(N5CCOCC5)CC45CCC5)c(-c4c(Cl)c(C)cc5[nH]ncc45)c3C)C2)C1 (single isomer, unassigned) [Example 63b, 1-(6-(4-(5-chloro-6-methyl-1H-indazol-4-yl)-5-methyl-3-(8-morpholino-5-azaspiro[3.5]nonan-5-yl)-1H-pyrazol-1-yl)-2-azaspiro[3.3]heptan-2-yl)prop-2-en-1-one] | 3100 nM
C=CC(=O)N1CC2(CC(n3nc(N4CC(c5cccnc5)C4)c(-c4c(Cl)c(C)cc5[nH]ncc45)c3C)C2)C1 (single isomer, unassigned) [Example 37b, 1-(6-(4-(5-chloro-6-methyl-1H-indazol-4-yl)-5-methyl-3-(3-(pyridin-3-yl)azetidin-1-yl)-1H-pyrazol-1-yl)-2-azaspiro[3.3]heptan-2-yl)prop-2-en-1-one] | 2100 nM
C=CC(=O)N1CC2(CC(n3nc(N4CC[C@@H](CN5CCC6(C5)CN(C(C)=O)C6)CC4(C)C)c(-c4c(Cl)c(Cl)cc5[nH]ncc45)c3C)C2)C1 (single isomer, unassigned) [Example 317b] | 7 nM
C=CC(=O)N1CC2(CC(n3nc(N4CCC(N5C[C@H](OC)[C@H](OC)C5)CC4(C)C)c(-c4c(Cl)c(C)cc5[nH]ncc45)c3C)C2)C1 (single isomer, unassigned) [Example 102b] | 23 nM
C/C=C/C(=O)N1CC2(CC(n3nc(N4CCN(C5COC5)CC45CCC5)c(-c4c(Cl)c(C)cc5[nH]ncc45)c3C)C2)C1 (single isomer, unassigned) [Example 138a, (E)-1-(6-(4-(5-chloro-6-methyl-1H-indazol-4-yl)-5-methyl-3-(8-(oxetan-3-yl)-5,8-diazaspiro[3.5]nonan-5-yl)-1H-pyrazol-1-yl)-2-azaspiro[3.3]heptan-2-yl)but-2-en-1-one] | > 5000 nM
C=CC(=O)N1CC2(CC(n3nc(N4CCN(C(COC)COC)C[C@]4(C)CC)c(-c4c(Cl)c(C)cc5[nH]ncc45)c3C)C2)C1 (single isomer, unassigned) [Example 187a] | 4200 nM
C=CC(=O)N1CC2(CC(n3nc(N4CC[C@@H](N(C)C(C)=O)CC4(C)C)c(-c4c(Cl)c(C)cc5[nH]ncc45)c3C)C2)C1 (single isomer, unassigned) [Example 69a] | 4400 nM
C=CC(=O)N1CC2(CC(n3nc(N4CCn5nccc5C4C)c(-c4c(Cl)c(C)cc5[nH]ncc45)c3C)C2)C1 (single isomer, unassigned) [Example 42b, 1-(6-(4-(5-chloro-6-methyl-1H-indazol-4-yl)-5-methyl-3-(4-methyl-6,7-dihydropyrazolo[1,5-a]pyrazin-5(4H)-yl)-1H-pyrazol-1-yl)-2-azaspiro[3.3]heptan-2-yl)prop-2-en-1-one] | 186 nM
C=CC(=O)N1CC2(CC(n3nc(N4CCCC45CCOCC5)c(-c4c(Cl)c(C)cc5[nH]ncc45)c3C)C2)C1 [Example 60, 1-(6-(4-(5-chloro-6-methyl-1H-indazol-4-yl)-5-methyl-3-(8-oxa-1-azaspiro[4.5]decan-1-yl)-1H-pyrazol-1-yl)-2-azaspiro[3.3]heptan-2-yl)prop-2-en-1-one] | 4900 nM
C=CC(=O)N1CC2(CC(n3nc(N4CCC(C(=O)N(C)C)CC4(C)C)c(-c4c(Cl)c(C)cc5[nH]ncc45)c3C)C2)C1 (stereo not shown) [Example 98a, 1-(1-(2-acryloyl-2-azaspiro[3.3]heptan-6-yl)-4-(5-chloro-6-methyl-1H-indazol-4-yl)-5-methyl-1H-pyrazol-3-yl)-N,N,2,2-tetramethylpiperidine-4-carboxamide] | > 5000 nM
C=CC(=O)N1CC2(CC(n3nc(N4CC[C@@H](CN5CC6CC(C5)N6C(C)=O)CC4(C)C)c(-c4c(Cl)c(Cl)cc5[nH]ncc45)c3C)C2)C1 (single isomer, unassigned) [Example 301a] | 1900 nM
C=CC(=O)N1CC2(CC(n3nc(N4CCC(N5CC6COCC(C5)O6)CC4(C)C)c(-c4c(Cl)c(C)cc5[nH]ncc45)c3C)C2)C1 (single isomer, unassigned) [Example 119a, 1-(6-(3-(4-(3,9-dioxa-7-azabicyclo[3.3.1]nonan-7-yl)-2,2-dimethylpiperidin-1-yl)-4-(5-chloro-6-methyl-1H-indazol-4-yl)-5-methyl-1H-pyrazol-1-yl)-2-azaspiro[3.3]heptan-2-yl)prop-2-en-1-one] | 2800 nM
C=CC(=O)N1CC2(CC(n3nc(N4CC[C@@H](OCCN5CCOCC5)CC4(C)C)c(-c4c(Cl)c(Cl)cc5[nH]ncc45)c3C)C2)C1 (single isomer, unassigned) [Example 110b] | 10 nM
C=CC(=O)N1CC2(CC(n3nc(N4CC[C@@H](CN5CC6CCC(C5)O6)CC4(C)C)c(-c4c(Cl)c(Cl)cc5[nH]ncc45)c3C)C2)C1 (single isomer, unassigned) [Example 314b] | 52 nM
